From US11013235B2 (priority 2015, dated 2021)
Read-outs that look alike come from different tables or passages of the source.

Legend:
Assay type in all cases: in vivo
[1] = tested on: Candidatus 'Liberibacter asiaticus'; conditions: spraying every 15 days, 12 months after treatment, Citrus sinensis with HLB
Phytophthora parasitica = test: Control of Phytophthora parasitica disease in tobacco (Pp-Nt); conditions: 1 μM spraying every 24 hours for one week, water control 91
Rhizoctonia solani [2] = test: Control of Rhizoctonia solani disease in tobacco (Rs-Nt); conditions: 1 μM spraying every 24 hours for one week, water control 87
Nocardia sp = test: Control of Nocardia sp disease in tobacco (N-Nt); conditions: 1 μM spraying every 24 hours for one week, water control 58
Method in brief: (§1)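 Fifty pre-inoculated plants per treatment received 1 μM compound sprays daily for a week; water-sprayed plants served as controls. Disease scored as plant mortality (Nocardia), share of leaves with symptoms (A. solani) or lesion diameter (B. cinerea).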

Rhizoctonia solani [3] = test: Control of Rhizoctonia solani disease in tomato (Rs-SI); conditions: 1 μM spraying every 24 hours for one week, water control 96
Alternaria solani = test: Control of Alternaria solani disease in tomato (As-SI); conditions: 1 μM spraying every 24 hours for one week, water control 68
Method in brief: as §1

Botrytis cinerea [4] = test: Control of Botrytis cinerea disease in Arabidopsis (Bc-At); conditions: 1 μM spraying every 24 hours for one week, water control 8.7
Method in brief: as §1

Botrytis cinerea [5] = test: Control of Botrytis cinerea disease in tobacco (Bc-Nt); conditions: 1 μM spraying every 24 hours for one week, water control 6.7
Method in brief: as §1

Botrytis cinerea [6] = test: Control of Botrytis cinerea disease in tomato (Bc-SI); conditions: 1 μM spraying every 24 hours for one week, water control 7.4
Method in brief: as §1

Radopholus similis = test: Nematode control, nodules per plant: Radopholus similis; conditions: 1 μM foliar application every 5 days, evaluation 35 days after, control 45
Method in brief: (§2)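 Read-out: nodule count per plant at final evaluation 35 days after start. Foliar spray of 1 μM compound (ethanol stock diluted in water) repeated every 5 days, ten plants per treatment.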

Meloidogyne incognita = test: Nematode control, nodules per plant: Meloidogyne incognita; conditions: 1 μM foliar application every 5 days, evaluation 35 days after, control 34
Method in brief: as §2

Pratylenchus coffeae = test: Nematode control, nodules per plant: Pratylenchus coffeae; conditions: 1 μM foliar application every 5 days, evaluation 35 days after, control 42
Method in brief: as §2

Structure (SMILES) | Titers of the bacterium ([1]; 0.001 μM) | Titers of the bacterium ([1]; 0.01 μM) | Titers of the bacterium ([1]; 1 μM) | Titers of the bacterium ([1]; 5 μM) | Titers of the bacterium ([1]; 10 μM) | Pp-Nt: percentage of mortality (Phytophthora parasitica) | Rs-Nt: percentage of mortality (Rhizoctonia solani [2]) | N-Nt: percentage of mortality (Nocardia sp) | Rs-SI: percentage of mortality (Rhizoctonia solani [3]) | As-SI: percentage of leaves with the disease symptoms (Alternaria solani) | Bc-At: mean of the diameter of the lesion (Botrytis cinerea [4]) | Bc-Nt: mean of the diameter of the lesion (Botrytis cinerea [5]) | Bc-SI: mean of the diameter of the lesion (Botrytis cinerea [6]) | Rs: number of nodules per plant (Radopholus similis) | Mi: number of nodules per plant (Meloidogyne incognita) | Pc: number of nodules per plant (Pratylenchus coffeae)
Cc1c(CCC(=O)NCC(O)CO)c(=O)oc2cc3occ(-n4cccc4)c3cc12 (stereo not drawn) [IN, N-(2,3-dihydroxypropyl)-3-[4-methyl-2-oxo-6-(1H-pyrrol-1-yl)-2H-furo[3,2-g]chromen-3-yl]propanamide] | 524 copies per reaction | 0 copies per reaction | 0 copies per reaction | 54 copies per reaction | 2368 copies per reaction | 3% | 0% | 0% | 1% | 7% | 1.1 mm | 2.0 mm | 1.6 mm | 3 | 0 | 0
CC1CCN(C(=O)c2ccc(OC3CCN(CC(O)CO)CC3)cc2)C1 (stereo not drawn) [IVA, 3-(4-{4-[(3-methylpyrrolidin-1-yl)carbonyl]phenoxy}piperidin-1-yl)propane-1,2-diol] | 598 copies per reaction | 1 copies per reaction | 5 copies per reaction | 98 copies per reaction | 6521 copies per reaction | 0% | 0% | 0% | 1% | 5% | 2.4 mm | 1.5 mm | 0.8 mm | 0 | 0 | 0
CC1CCN(C(=O)c2ccc(OC3CCN(CC(O)C(C)O)CC3)cc2)C1 (stereo not drawn) [IVB, 1-(4-{4-[(3-methylpyrrolidin-1-yl)carbonyl]phenoxy}piperidin-1-yl)butane-2,3-diol] | 432 copies per reaction | 8 copies per reaction | 4 copies per reaction | 43 copies per reaction | 3574 copies per reaction | 3% | 0% | 0% | 1% | 7% | 0.7 mm | 0.9 mm | 1.2 mm | 3 | 0 | 0
O=C(c1ccc(OC2CCN(CC(O)CO)CC2)cc1)N1CCC(c2ccccc2)C1 (stereo not drawn) [IVC, 3-(4-{4-[(3-phenylpyrrolidin-1-yl)carbonyl]phenoxy}piperidin-1-yl)propane-1,2-diol] | 123 copies per reaction | 4 copies per reaction | 0 copies per reaction | 23 copies per reaction | 3541 copies per reaction | 1% | 2% | 1% | 3% | 1% | 1.2 mm | 0.3 mm | 0.8 mm | 14 | 2 | 13
CC(O)C(O)CN1CCC(Oc2ccc(C(=O)N3CCC(c4ccccc4)C3)cc2)CC1 (stereo not drawn) [IVD, 1-(4-{4-[(3-phenylpyrrolidin-1-yl)carbonyl]phenoxy}piperidin-1-yl)butane-2,3-diol] | 587 copies per reaction | 0 copies per reaction | 0 copies per reaction | 87 copies per reaction | 2368 copies per reaction | 2% | 3% | 1% | 2% | 2% | 1.1 mm | 2.0 mm | 1.6 mm | 2 | 3 | 15
O=C(c1ccc(OC2CCN(CC(O)CO)CC2)cc1)N1CCC(C2CCCCC2)C1 (stereo not drawn) [IVE] | 985 copies per reaction | 0 copies per reaction | 0 copies per reaction | 98 copies per reaction | 9845 copies per reaction | 1% | 4% | 2% | 2% | 3% | 0.5 mm | 0.9 mm | 0.8 mm | 14 | 4 | 2
CC(O)C(O)CN1CCC(Oc2ccc(C(=O)N3CCC(C4CCCCC4)C3)cc2)CC1 (stereo not drawn) [IVF, 1-(4-{4-[(3-cyclohexylpyrrolidin-1-yl)carbonyl]phenoxy}piperidin-1-yl)butane-2,3-diol] | 657 copies per reaction | 0 copies per reaction | 0 copies per reaction | 67 copies per reaction | 8654 copies per reaction | 0% | 0% | 1% | 2% | 8% | 1.5 mm | 1.5 mm | 2.5 mm | 0 | 0 | 17
O=C(c1ccc(OC2CCN(CC(O)CO)CC2)cc1)N1CCC(C2CCCC2)C1 (stereo not drawn) [IVG, 3-(4-{4-[(3-cyclopentylpyrrolidin-1-yl)carbonyl]phenoxy}piperidin-1-yl)propane-1,2-diol] | 658 copies per reaction | 0 copies per reaction | 0 copies per reaction | 68 copies per reaction | 4562 copies per reaction | 0% | 0% | 0% | 0% | 7% | 2.4 mm | 1.5 mm | 0.8 mm | 0 | 0 | 0
CC(O)C(O)CN1CCC(Oc2ccc(C(=O)N3CCC(C4CCCC4)C3)cc2)CC1 (stereo not drawn) [IVH, 1-(4-{4-[(3-cyclopentylpyrrolidin-1-yl)carbonyl]phenoxy}piperidin-1-yl)butane-2,3-diol] | 756 copies per reaction | 0 copies per reaction | 0 copies per reaction | 76 copies per reaction | 1351 copies per reaction | 0% | 0% | 0% | 1% | 5% | 0.7 mm | 0.9 mm | 1.2 mm | 0 | 0 | 0
